The record followed here is patent publication US11285103B2, “Degradable hydrogel under physiological conditions” (priority 2015, dated 2022).

A short description of data set [1]: Determination of half life in PBS (cleavage of biodegradable linkers from model peptides). Type of data set: physicochemical. As to conditions: linker X on N terminus of model peptide X-[…]; 1 mg/mL in PBS, 37° C.; read-out: t1/2 (h), cleavage of biodegradable linker (converted). How it is done:
Peptides GIVEQAA-NH2 (SEQ ID NO: 3) and […] (SEQ ID NO: 2), two mimics of the N-terminus section of insulin A chain, were used as model peptides to determine the half lives of various biogradable linkers linked to the N-terminus of the peptides through an amide bond. The model peptides were prepared with Fmoc chemistry, cleaved by TFA and purified by preparative RP-HPLC.
A model peptide capped with a biodegradable linker was dissolved at 1 mg/mL concentration in PBS and the solution was incubated at 37° C. in a water bath. Samples were collected for analysis at different time points (e.g., 8 h, 16 h, 24 h, 48 h, 72 h, 96 h, 120 h). […] The cleavage of a biodegradable linker was quenched by lowering pH to 2 by addition of 0.1% TFA solution. RP-HPLC was used to monitor the cleavage reactions and the cleavage rates were quantitatively studied by measuring the peak areas of model peptides when they are capped with biodegradable linkers and when linkers are released. […]
The rate of cleavage was determined for the model peptides capped with respective biodegradable linkers. The concentrations of the model peptides capped with biodegradable linkers and the released model peptides were determined by their respective peak areas. […] The cleavage half life of a peptide capped with a biodegradable linker was calculated by using the equation and the slope derived from this plot. […]

Data set [2] is described as follows: Determination of half life in serum (cleavage of biodegradable linkers from model peptide). Type of data set: in vitro ADME. The note with it: serum (100%); linker X on N terminus of model peptide X-G-dI-dV-dE-dQ-dA-dA; 100% serum, 37° C.; read-out: t1/2 (h), cleavage of biodegradable linker (converted). On the procedure: Model peptides X-G-dI-dV-dE-dQ-dA-dA (SEQ ID NO:4) capped with various biodegradable linkers were used in the assay. D amino acids were used to prevent other enzymatic cleavage of the model peptides. The peptides were dissolved in 100% serum and incubated at 37° C. Samples were collected for analysis at different time points (e.g., 8 h, 16 h, 24 h, 48 h, 72 h, 96 h, and 120 h).
The rate of cleavage was determined for the model peptides capped with respective biodegradable linkers. The concentrations of the model peptides capped with biodegradable linkers and the released model peptides were determined by their respective peak areas. The first order dissociation rate constant of a model peptide capped with a biodegradable linker was determined by plotting the logarithm of [starting model peptide capped with the biodegradable linker]/[remaining model peptide capped with the biodegradable linker] at various time intervals. The cleavage half life of a peptide capped with a biodegradable linker was calculated by using the equation and the slope derived from this plot.

In a further data set the test system is diabetic rats. Briefly: Blood glucose change in streptozotocin-induced diabetic rats. Type of data set: in vivo, Wistar rats. The note with it: 40 nmol/kg daily. How it is done:
9-week-old male Wistar rats, average weight 240±10 g, were housed in polypropylene cages and maintained at constant temperature and humidity on a 12 hour light/dark cycle, and allowed access to food and water ad libitum. When diabetes was induced, rats were fasted for 48 hours and intraperitoneally injected with streptozotocin (60 mg/kg, dissolved in […] sodium citrate buffer, pH 4.5), then food was provided. Blood glucose was checked after three days. Animals with blood glucose above 250 mg/dl was considered diabetic, and the rats with blood glucose higher than 450 mg/dl were used in the experiment. Recombinant insulin (24 nmol/kg) was injected daily to maintain blood glucose no higher than 550 mg/dl.
The insulin hydrogels were prepared according to the methods in Examples 8 and 20, but the hydrogel used in this example was loaded only with insulin. The actual insulin content was calculated with the method in Example 18.
Rats showing hyperglycemia (400-450 mg/dl) were divided into 3 groups, each containing 8 rats. Rats in the first group were intraperitoneally injected saline (100 μL). Rats in the second group were intraperitoneal injected insulin detemir (40 nmol/kg) daily. Rats in the third group were Injected hydrogel (75 nmol/kg, calculated according to the actual amount of human insulin in the hydrogel). […]

Numbered stars: 1 amine (or outer) side, 2 acyl side, 3 side chain; on linkers, the order of the positions; unused ones are H or OH. Square brackets hold non-standard residues; d marks the D form. Peptide text beside a SMILES is read from it. * marks the point of attachment. Fmoc = O=C(OCC1c2ccccc2-c2ccccc21)*; X1 = NCCc1cc(CN[*:1])ccc1C(=O)[*:2]

For `CC1NCc2cc(CN)ccc2C1=O` (stereo not drawn), the half-life at 1 mg/mL in data set [1] was 264 h. For `CC[C@@H](C)[C@@H](NC(=O)CNC(=O)c1ccc(CNC(=O)OCC2c3ccccc3-c3ccccc32)cc1CCN)C(=O)N[C@@H](C(=O)N[C@H](CCC(=O)O)C(=O)N[C@H](CCC(N)=O)C(=O)N[C@H](C)C(=O)N[C@H](C)C(=O)O)C(C)C` (Fmoc-[X1]G[dI][dV][dE][dQ][dA][dA]-OH), the half-life in data set [2] is 735 h. Take Insulin detemir: the blood glucose lowering result in the data set with diabetic rats is given as “cannot effectively lower blood glucose”.
